Source: patent publication EP4725490A1, “EED INHIBITOR SOLID DISPERSION, ORAL FORMULATION COMPRISING SAME, AND PREPARATION METHOD THEREFOR” (Ascentage Pharma (Suzhou) Co., Ltd., priority 2023, dated 2024)
In brackets after ≈: the same amount, converted by molar mass.

Columns and labels:
[1] = Solubility of compound A in various solvents (standard solubility determination); format: physicochemical; settings: organic solvent or mixture, 25 °C
Procedure: The solubility (25 °C) of the active ingredient compound A in various solvents was determined using a standard solubility determination method well known in the art.

[2] = Solubility of compound A in aqueous buffer; format: physicochemical; settings: pH 1.2, aqueous buffer, thermodynamic from solid, pH of 1.2 to 7.4, 37 °C/24 h
Description: The starting material of compound A is an anhydrous crystal powder with slight hygroscopicity, which is almost insoluble in water. […] For such drugs with poor water solubility, the dissolution of the drugs in gastrointestinal fluids is the rate-limiting step of their bioavailability, and poor water solubility will necessarily lead to low dissolution and thus lower bioavailability. Therefore, if the bioavailability of the drug is to be improved, the dosage form, formula composition, and process need to be specially designed to change the dispersion state of the drug and promote its dissolution in the gastrointestinal tract.

CC(C)N1Cc2cc(C(F)(F)F)ncc2-c2cnc(NCc3c(F)ccc4c3CCO4)n3cnc(c23)C1=O [compound A, 12-(((5-fluoro-2,3-dihydrobenzofuran-4-yl)methyl)amino)-4-isopropyl-7-(trifluoromethyl)-4,5-dihydro-3H-2,4,8,11,12a-pentaazabenzo[4,5]cycloocta[1,2,3-cd]inden-3-one]
solubility ([1]; Acetonitrile): 1.2 mg/mL (≈ 2.28 mM)
solubility ([1]; DMF): 33 mg/mL (≈ 62.7 mM)
solubility ([1]; DMSO): 33 mg/mL (≈ 62.7 mM)
solubility ([1]; Dichloromethane): 10 mg/mL (≈ 19 mM)
solubility ([1]; Ethanol): 1.1 mg/mL (≈ 2.09 mM)
solubility ([1]; Methanol: dichloromethane (1:1)): 28.5 mg/mL (≈ 54.1 mM)
solubility ([1]; Methanol: dichloromethane (1:2)): 50 mg/mL (≈ 95 mM)
solubility ([1]; Methanol: dichloromethane (1:3)): 83 mg/mL (≈ 158 mM)
solubility ([1]; Methanol: dichloromethane (1:4)): 83 mg/mL (≈ 158 mM)
solubility ([1]; Methanol: dichloromethane (1:5)): 83 mg/mL (≈ 158 mM)
solubility ([1]; Methanol: dichloromethane (2:1)): 14.3 mg/mL (≈ 27.2 mM)
solubility ([1]; Methanol: dichloromethane (3:1)): 7.7 mg/mL (≈ 14.6 mM)
solubility ([1]; Methanol): 4.3 mg/mL (≈ 8.17 mM)
solubility ([1]; N-methylpyridine): 11 mg/mL (≈ 20.9 mM)
solubility ([1]; Tetrahydrofuran): 2 mg/mL (≈ 3.8 mM)
solubility ([1]; Toluene): 3.3 mg/mL (≈ 6.27 mM)
solubility at 24 h [2]: 0.08 to 0.39 µg/mL (≈ 0.000152 to 0.000741 mM)
